Laboratory results published in patent US8703438B2, “Ligand binding stabilization method for drug target identification” (The Regents of the University of California, priority 2008, dated 2014).

Key:
[1] = tested on: proteins of S. cerevisiae BY4742 cell lysates; assay: DARTS with yeast cell lysates incubated in vitro with resveratrol, mass spectrometry of protected bands; assay type: binding; conditions: 1 mM resveratrol
Description: (§1) For DARTS using yeast cell lysates incubated in vitro with resveratrol (FIG. 4B), S. cerevisiae BY4742 cells were used.
(§2) Gel bands were cut out and prepared for mass spec analysis with trypsin digestion as described in SI. Peptides were analyzed by LC/MS/MS on a Thermo LTQ-Orbitrap mass spectrometer with an Eksigent LC pump. For quantitative comparison of protein and peptide abundances, MS spectra were analyzed using the differential workflow of Rosetta Elucidator (Rosetta Inpharmatics) (54). Annotation was performed using PeptideTeller and ProteinTeller (see SI).
(§3) Proteins were initially identified by searching the spectra against the human International Protein Index database (version 3.46) and the S. cerevisiae Swissprot database (May 2008) using the SEQUEST algorithm (Eng et al. (1994) J Am Soc Mass Spectrom 5: 976-989) integrated into the Bioworks software package. Each peptide met the following criteria: XCorr ≧2 (+1), ≧3 (+2), ≧4 (+3), ≧5 (+4), and DeltaCN>0.1. For quantitative comparison of protein and peptide abundances, MS spectra were analyzed using the differential workflow of the Rosetta Elucidator software system (Rosetta Inpharmatics) (Neubert et al. (2008) J Proteome Res 7: 2270-2279). Annotation was performed using PeptideTeller and ProteinTeller with a minimum probability of 0.99 and predicted error of 0.0. Protein ratio data were generated with a P-value cutoff of 0.01 for all proteins with a peptide number >1. Intensity scaling was performed against the mean of feature signals, with 10% of outliers removed from the baseline dataset. Similar results were obtained in analysis without intensity scaling (FIG. 9A).
(§4) For the DARTS experiment using yeast cell lysates incubated in vitro with resveratrol, BY4742 cells were suspended in yeast extraction buffer (Grant et al. (1999) Meth. Mol Biol 119: 311-317) [(40 mM HEPES/KOH pH 7.5, 350 mM NaCl, 0.5 mM DTT, 10% glycerol, 0.1% Tween-20) supplemented with Roche complete protease inhibitor cocktail (Roche Diagnostics, Indianapolis, Ind.)]. Cell pellets were broken with glass beads for 2×40 s at 4° C. in a FastPrep-24 (MP Biomedicals, Solon, Ohio). Whole cell lysates were collected after centrifugation (1500 rpm, 10 min). Lysates were incubated with ethanol control or 1 mM resveratrol for 30 min at room temperature. Samples were then divided into two aliquots, which underwent proteolysis with thermolysin or mock proteolysis.

[2] = target: T1, proteins of S. cerevisiae BY4742 cell lysates (Saccharomyces cerevisiae, UniProt P10081); assay: as above; assay type: binding; conditions: 1 mM resveratrol, Upper band
T1 construct: endogenous in cells; host or cells: S. cerevisiae BY4742
Description: as §1, §2, §3, §4

Tif1 A64Q point mutant = Tif1 A64Q point mutant (Saccharomyces cerevisiae, UniProt P10081, A64Q); assay: DARTS target mutation analysis; assay type: binding, yeast; conditions: FIG. 4C
From the text: This enrichment was confirmed by western blotting using the TAP-tagged (Ghaemmaghami et al. (2003) Nature 425: 737-741) eIF4A yeast strain (FIG. 10). […] While the alanine is conserved throughout fungi and animals, plants have a glutamine at this position and the bulkier side chain is hypothesized to protect plant eIF4A from resveratrol inhibition by minimizing self binding.

TAP-tagged Tif1 (eIF4A) = target: T2, TAP-tagged Tif1 (eIF4A) (Saccharomyces cerevisiae, UniProt P10081); assay: DARTS western blot with TAP-tagged eIF4A yeast strain; assay type: binding; conditions: FIG. 10
T2 construct: endogenous in cells; host or cells: TAP-tagged eIF4A yeast strain (Ghaemmaghami et al. 2003 collection)
T2 sequence (P10081 1-395): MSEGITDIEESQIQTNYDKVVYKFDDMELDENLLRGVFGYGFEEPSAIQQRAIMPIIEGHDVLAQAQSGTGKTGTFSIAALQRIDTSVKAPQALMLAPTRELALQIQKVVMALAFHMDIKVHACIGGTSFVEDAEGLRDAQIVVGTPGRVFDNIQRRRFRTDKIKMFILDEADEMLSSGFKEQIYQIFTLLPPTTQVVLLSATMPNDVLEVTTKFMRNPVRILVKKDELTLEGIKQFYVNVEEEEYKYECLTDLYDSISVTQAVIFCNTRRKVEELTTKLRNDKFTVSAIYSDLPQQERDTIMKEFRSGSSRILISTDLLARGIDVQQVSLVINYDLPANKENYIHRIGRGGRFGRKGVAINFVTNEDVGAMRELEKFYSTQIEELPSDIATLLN
From the text: FIG. 4A: Chemical structure of resveratrol. FIG. 4B: Yeast cell lysates and human HeLa cell lysates were each treated with resveratrol in vitro followed by thermolysin digestion and silver staining. Protected bands of similar size were detected. FIG. 4C: Resveratrol protects TAP-tagged eIF4A, but not an unrelated Htb2, protein from proteolysis. Arrow: protein protected from subtilisin proteolysis (H. sapiens (SEQ ID NO:1), M. musculus (SEQ ID NO:2), X. laevis (SEQ ID NO:3), D. melanogaster (SEQ ID NO:4), C. elegans (SEQ ID NO:5), S. purpuratus (SEQ ID NO:6), C. reinhardtii (SEQ ID NO:7), A. thaliana (SEQ ID NO:8), H. andersenii (SEQ ID NO:9), S. cerevisiae (SEQ ID NO:10)). FIG. 4D: Resveratrol inhibits eIF4A-dependent translation in HEK 293 cells as assayed by bicistronic translation reporters. […] FIG. 4E: eIF4A is required for longevity in resveratrol-treated animals. Resveratrol (50 μM) lengthens the lifespan of wild-type N2 worms fed control (gfp) RNAi (green), but not worms fed eIF4A (inf-1) RNAi (red) or daf-16 RNAi (blue). gfp(RNAi), mVeh=19 (n=74), mRSV=20 (n=78), P=0.0006***; inf-1(RNAi), mVeh=26 (n=76), mRSV=24 (n=79), P=0.4687; daf-16(RNAi), mVeh=17 (n=78), mRSV=17 (n=76), P=0.3305. m, mean lifespan (days of adulthood); n, number of animals tested.
Arrow: protein protected from proteolysis. […]

Chain of Tif1 A64Q point mutant (P10081 whole entry A64Q): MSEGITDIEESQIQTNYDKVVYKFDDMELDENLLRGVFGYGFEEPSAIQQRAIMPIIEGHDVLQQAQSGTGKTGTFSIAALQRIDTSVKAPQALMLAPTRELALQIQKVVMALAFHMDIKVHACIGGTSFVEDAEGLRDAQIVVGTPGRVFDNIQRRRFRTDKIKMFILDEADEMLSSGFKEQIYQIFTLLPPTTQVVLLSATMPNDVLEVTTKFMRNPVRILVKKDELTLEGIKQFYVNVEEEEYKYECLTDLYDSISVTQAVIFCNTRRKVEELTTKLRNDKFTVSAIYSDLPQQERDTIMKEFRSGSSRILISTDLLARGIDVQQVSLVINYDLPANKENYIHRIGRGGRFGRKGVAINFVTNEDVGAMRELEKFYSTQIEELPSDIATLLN

SMILES: Oc1ccc(C=Cc2cc(O)cc(O)c2)cc1 [resveratrol]
- Fold Change, 40S ribosomal protein S12 ([1]; Lower band): 2.07
- Fold Change, 40S ribosomal protein S15 ([1]; Lower band): 3.677
- Fold Change, 40S ribosomal protein S16 ([1]; Lower band): 2.906
- Fold Change, 40S ribosomal protein S18 ([1]; Lower band): 2.412
- Fold Change, 40S ribosomal protein S19 ([1]; Lower band): 1.965
- Fold Change, 40S ribosomal protein S24 ([1]; Lower band): 1.481
- Fold Change, 40S ribosomal protein S26-B ([1]; Lower band): 2.429
- Fold Change, 60S ribosomal protein L14-A ([1]; Lower band): 1.614
- Fold Change, 60S ribosomal protein L25 ([1]; Lower band): 3.564
- Fold Change, 60S ribosomal protein L26-A ([1]; Lower band): 9.181
- Fold Change, 60S ribosomal protein L26-B ([1]; Lower band): 11.107
- Fold Change, 60S ribosomal protein L34 ([1]; Lower band): 2.383
- Fold Change, 60S ribosomal protein L35 ([1]; Lower band): 3.774
- Fold Change, Histone H2A ([1]; Lower band): 3.002
- Fold Change, Histone H2B ([1]; Lower band): 2.229
- Fold Change, Ornithine aminotransferase ([1]; Lower band): 2.531
- Fold Change, 40S ribosomal protein S23 ([1]; Upper band): 4.84
- Fold Change, 40S ribosomal protein S26 ([1]; Upper band): 4.701
- Fold Change, 60S ribosomal protein L21-A ([1]; Upper band): 2.777
- Fold Change, 60S ribosomal protein L24 ([1]; Upper band): 6.05
- Fold Change, 60S ribosomal protein L25 ([1]; Upper band): 2.713
- Fold Change, 60S ribosomal protein L27-A ([1]; Upper band): 2.554
- Fold Change, 60S ribosomal protein L28 ([1]; Upper band): 1.804
- Fold Change, ATP-dependent RNA helicase eIF4A [2]: 1.961
- effect of Tif1 A64Q point mutation on resveratrol protection (Tif1 A64Q point mutant): confers resistance to resveratrol
- protection of TAP-tagged Tif1 from proteolysis (TAP-tagged Tif1 (eIF4A)): protects the TAP-tagged Tif1
